The source of these data is article PMC5722318, “Absence of anti-hypocretin receptor 2 autoantibodies in post pandemrix narcolepsy cases” (PLoS ONE, 2017).

Where two headings read alike, the source gives them in different places.

The subject of this experiment is DQ0602. In kind it is binding, human. The settings on record: for % Read #1 / Read #1: replicate 1; for % Average: mean of two reads; for % Read #2 / Read #2: replicate 2; for Average: mean of the two raw reads; for Read #1 / Read #2: raw signal read.
Setting [1] is: % of Bio-EBV binding, first assay (02/04/2016, 07/15/2016 or 08/11/2016, by peptide).
Setting [2] is: % of Bio-EBV binding, repeat assay (07/19/2016, 07/18/2016 or 08/12/2016, by peptide).
Setting [3] is: first assay (02/04/2016, 07/15/2016 or 08/11/2016, by peptide).
[4] abbreviates: repeat assay (07/19/2016, 07/18/2016 or 08/12/2016, by peptide).

For the sequence “HDSDKGVTAACPH [HA143-155 146D, synthetic 13-mer hemagglutinin peptide containing mutated 146D]”, the “Average (two assays)” value worked out at 86.9741%. Also, the “% Read #1” value (% of Bio-EBV binding (Bio-EBV average = 100), first assay (02/04/2016, 07/15/2016 or 08/11/2016, by peptide)) is on record as 75.8456%. Besides, under setting [1], the “% Average” value is on record as 83.2638% and the “% Read #2” value came to 90.682%. Also, under setting [2], the “% Average” value is given as 90.6844%, the “% Read #1” value was determined as 90.6154% and the “% Read #2” value came to 90.7533%. Besides, under setting [3], the Average was found to be 15669 and the “Read #2” value was determined as 17065. For the same sequence, under setting [4], the Average came out at 15132.5, the “Read #1” value turned out to be 15121 and the “Read #2” value came out at 15144. For the same sequence, the “Read #1” value (first assay (02/04/2016, 07/15/2016 or 08/11/2016, by peptide), competition against Bio-EBV epitope) is on record as 14273.
